# US20100016313A1, “INTESTINAL ALKALINE PHOSPHATASE MODULATORS AND USES THEREOF” (Burnham Institute for Medical Research, priority 2008, published 2010)
# Biological target: T1, human IAP (Homo sapiens, UniProt P09923)
# T1 construct: made in house; host or cells: COS-1 cells, transient expression from pCMV-Script; conditioned serum-free medium used as enzyme stock
# T1 sequence (P09923 20-503 limits assumed): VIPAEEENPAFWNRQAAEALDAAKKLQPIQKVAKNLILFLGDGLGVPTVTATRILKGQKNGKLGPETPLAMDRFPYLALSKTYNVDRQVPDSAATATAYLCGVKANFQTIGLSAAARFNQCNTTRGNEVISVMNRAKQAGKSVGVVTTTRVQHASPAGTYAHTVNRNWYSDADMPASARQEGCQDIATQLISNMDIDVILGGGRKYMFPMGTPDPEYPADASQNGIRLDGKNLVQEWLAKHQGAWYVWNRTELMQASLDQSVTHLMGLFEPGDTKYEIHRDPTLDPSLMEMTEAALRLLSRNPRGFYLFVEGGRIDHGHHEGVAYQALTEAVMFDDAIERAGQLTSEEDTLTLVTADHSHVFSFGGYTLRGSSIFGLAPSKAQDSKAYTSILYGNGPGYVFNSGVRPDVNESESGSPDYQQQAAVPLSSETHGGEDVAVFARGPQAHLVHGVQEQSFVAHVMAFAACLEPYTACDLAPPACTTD
# Assay: IAP assay using CDP-Star (chemiluminescent, dose response)
# Format: biochemical
# Details: IAP modulators, Tables A-H, positive = inhibitor; for IC50: negative Hill coefficient = activator; for n (Hill coefficient): negative = activator
# From the text: An expression vector pCMV-Script containing cDNA for human IAP, TNAP, PLAP, GCAP, mouse TNAP, dIAP, EAP or gIAP in secreted form (FLAG-tagged) is transfected into COS-1 cells for transient expression using a standard electroporation method. The GPI anchoring site is replaced by a FLAG sequence to make the proteins secreted into the media as well as to test their kinetics in a form immobilized by anti-FLAG antibody (Narisawa, et al, 2007). Medium is changed to serum free medium Opti-MEM (Invitrogen) 24 h later, and media containing secreted proteins was collected 66 hr after electroporation. Conditioned medium filtered by a 2 μm cellulose acetate membrane is supplemented with 0.1% BSA, aliquotted and stored at −80° C.
# Human IAP is produced on a large scale to be used in the primary high throughput screening. For a maximum of 200,000 wells including a blank and negative control in each plate, approximately 1600 ml of the recombinant human IAP working solution (8 μl/well×200,000) is used. The working solution is a 1:80 dilution of the stock solution that has AP activity showing ΔOD405 (velocity) ˜300 in 5 min pNPP calorimetric assay. Therefore a minimum of 20 ml of the stock solution (1600÷80) is needed. An enzyme stock is prepared from ten 15 cm φ plates of COS-1 cells using 100 μg plasmid DNA [ten plates×(10 μg DNA/1×10^7 cells per 15 cm φ plate)].
# Compound aliquots (4 μL at […] in 10% DMSO) are added to 8 μL of human IAP working solution of a the human IAP stock solution diluted 1:80 in assay buffer (250 mM DEA, pH 9.8, −2.5 mM MgCl2, −0.05 μM ZnCl2). The solution of substrate CDP-Star, disodium 2-chloro-5-(4-methoxyspiro{1,2-dioxetane-3,2′(5′-chloro)-tricyclo[3.3.1.1]3,7 decan}-4-yl)-1-phenyl phosphate (New England Biolabs), (8 μL of 125 μM in water) is added to each well. […] Dispensing of human IAP working solution and CDP-Star is processed using a WellMate bulk dispenser (Matrix). Plates (white 384-well small volume Greiner 784075) are incubated at room temperature for 30 min, and the luminescence signal is measured using a PerkinElmer EnVision multi-mode plate reader. L-Phenylalanine (1 mM final concentration) and 2% DMSO is utilized as an inhibition control and blank, respectively. Data analysis is processed using CBIS software (ChemInnovations, Inc).
# The compound is diluted ([…] to 0.03 mM) and incubated with the human IAP enzyme for 30 min prior to addition of substrate. At the same time, human TNAP, human PLAP, human GCAP, mouse TNAP, mouse dIAP, mouse EAP and mouse gIAP is tested to determine enzyme specificity.
Compound,IC50 [µM],n (Hill coefficient)
"COC(=O)c1cc(-c2ccc(OC)cc2)[nH]n1 [Compound B14, methyl 3-(4-methoxyphenyl)-1H-pyrazole-5-carboxylate]",> 100,–
"O=C1C2CC=CCC2C(=O)N1c1nc(-c2cccnc2)n[nH]1 (stereo not drawn) [Compound F7, 2-[3-(pyridin-3-yl)-1H-1,2,4-triazol-5-yl)-3a,4,7,7a-tetrahydro-1H-isoindole-1,3(2H)-dione]",1.77,0.927
"COC(=O)c1cc(-c2ccc(C)cc2)[nH]n1 [Compound A9, methyl 5-(4-methylphenyl)-1H-pyrazole-3-carboxylate]",> 100,–
"Cc1ccccc1S(=O)(=O)Nc1cc2ccccc2nc1Cl [Compound G6, N-(2-chloroquinolin-3-yl)-2-methylbenzenesulfonamide]",> 100,–
"CCc1ccc(-c2cc(C(=O)O)[nH]n2)cc1 [Compound B6, 3-(4-ethylphenyl)-1H-pyrazole-5-carboxylic acid]",> 100,–
"Cn1nc(-c2ccc(F)cc2)cc1C(=O)O [Compound D1, 3-(4-fluorophenyl)-1-methyl 1H-pyrazole-5 carboxylic acid]",> 100,–
"O=C1C2CCCCC2C(=O)N1c1ncn[nH]1 (stereo not drawn) [Compound F1, 2-(1H-1,2,4-triazol-5-yl)-hexahydro-1H-isoindole-1,3(2H)-dione]",13.8,−2.03
"CCOc1ccc(-c2cc(C(=O)O)[nH]n2)cc1 [Compound B9, 3-(4-ethoxyphenyl)-1H-pyrazole-5-carboxylic acid]",> 100,–
"Nc1nc(N2C(=O)C3CC=CCC3C2=O)nn1-c1ccccc1 (stereo not drawn) [Compound F12, 2-(5-amino-1-phenyl-1H-1,2,4-triazol-3-yl)-3a,4,7,7a-tetrahydro-1H-isoindole-1,3(2H)-dione]",> 100,–
"Cc1c(-c2ccccc2)n[nH]c1C(=O)O [Compound D3, 4-methyl-5-phenyl-1H-pyrazole-3-carboxylic acid]",> 100,–
"COc1cc(C)c(Cl)cc1S(=O)(=O)Nc1cccnc1 [Compound G4, 2-methoxy-4-methyl-5-chloro-N-(pyridin-3-yl)benzenesulfonamide]",> 100,–
"O=C1c2ccccc2C(=O)N1c1nc(Cc2ccccc2)n[nH]1 [Compound F11, 2-(3-benzyl-1H-1,2,4-triazol-5-yl)isoindoline-1,3-dione]",–,0.5445
"COC(=O)c1cc(-c2ccc3ccccc3c2)[nH]n1 [Compound C1, methyl 3-(nahthylen-2-yl)-1H-pyrazole-5-carboxylate]",> 100,–
"O=C1C2CC=CCC2C(=O)N1c1nc(CCc2ccccc2)n[nH]1 (stereo not drawn) [Compound F9, 2-(3-phenethyl-1H-1,2,4-triazol-5-yl)-3a,4,7,7a-tetrahydro-1H-isoindole-1,3(2H)-dione]",0.724,0.616
"COc1ccc(OC)c(S(=O)(=O)Nc2cnc3ccccc3c2)c1 [Compound G2, 2,5-dimethoxy-N-(quinolin-3-yl)benzenesulfonamide]",> 100,–
"CCOC(=O)c1cc(-c2cccc(C(F)(F)F)c2)[nH]n1 [Compound A6, ethyl 5-[3-(trifluoromethyl)phenyl]-1H-pyrazole-3-carboxylate]",45.4,−1.45
"COC(=O)c1cc(-c2ccc([N+](=O)[O-])cc2)[nH]n1 [Compound A10, methyl 5-(4-nitrophenyl)-1H-pyrazole-3-carboxylate]",> 100,–
"O=C(O)c1cc(-c2ccc(F)cc2)n[nH]1 [Compound B4, 3-(4-fluorophenyl)-1H-pyrazole-5-carboxylic acid]",> 100,–
"O=C(O)c1cc(-c2ccc3c(c2)OCCO3)n[nH]1 [Compound B11, 3-(2,3-dihydrobenzo[b][1,4]dioxyin-6-yl)-1H-pyrazole-5-carboxylic acid]",> 100,–

Compound,IC50 [µM],n (Hill coefficient)
"COc1ccc(-c2nnc3oc(O)cc(C)c2-3)cc1 [Compound E5, 3-(4-methoxyphenyl)-4-methylpyrano[2,3-c]prazol-6-ol]",21.1,−1.89
"COc1ccc(Br)cc1S(=O)(=O)Nc1cnc2ccccc2c1 [Compound G1, 5-bromo-2-methoxy-N-(quinolin-3-yl)benzenesulfonamide]",–,0.716
"Cn1ccnc1Cc1ncnc(Nc2ccccc2)n1 [Compound H3, 4-[(1-methyl-4H-imidazol-2-yl)methyl]-N-phenyl-1,3,5-triazin-2-amine]",30.5,−1.32
O=C1C2C3C=CC(C3)C2C(=O)N1c1nc(CCc2ccccc2)n[nH]1 (stereo not drawn) [Compound F10],–,0.871
"CN(C(=O)COC(=O)c1cc(-c2ccc(Br)cc2)[nH]n1)C1CCCCC1 [Compound A11, 2-[cyclohexyl(methyl)amino]-2-oxoethyl 5-(4-bromophenyl)-1H-pyrazole-3-carboxylate]",> 100,–
"CC(C)c1ccc(-c2cc(C(=O)O)[nH]n2)cc1 [Compound B3, 3-(4-isopropylphenyl)-1H-pyrazole-5-carboxylic acid]",98.3,−4.38
"O=C(c1[nH]nc2c1COc1ccccc1-2)N1CCCC1 [Compound E2, (2,4-dihydrochromeno[3,4-c]pyrazol-3-yl)(pyrrolidin-1-yl)methanone]",> 100,–
"O=C(O)c1cc(-c2ccc(Cl)cc2)n[nH]1 [Compound A2, 5-(4-chlorophenyl)-1H-pyrazole-3-carboxylic acid]",> 100,–
"CCOC(=O)c1cc(-c2ccc(Cl)cc2)n[nH]1 [Compound B17, ethyl 3-(4-chlorophenyl)-1H-pyrazole-5-carboxylate]",> 100,–
"Nc1ccc(-c2cc(C(=O)O)n[nH]2)cc1 [Compound A5, 5-(4-aminophenyl)-1H-pyrazole-3-carboxylic acid]",> 100,–
"COC(=O)c1cc(-c2ccccc2)n[nH]1 [Compound A8, methyl 5-phenyl-1H-pyrazole-3-carboxylate]",> 100,–
"Cc1ccc(Cl)c(N2C(=O)C(Cl)C(N3CCN(C)CC3)C2=O)c1Cl (stereo not drawn) [Compound H5, 3-chloro-1-(2,6-dichloro-3-methylphenyl)-4-(4-methylpiperazin-1-yl)pyrrolidine-2,5-dione]",> 100,–
"CC(=O)Nc1nnc(SCc2ccc(Br)cc2)[nH]1 [Compound H2, N-[5-(4-bromobenzylthio)-4H-1,2,4-triazol-3-yl)acetamide]",86.4,−0.563
"O=C1C2CC=CCC2C(=O)N1c1nc(-c2ccccc2)n[nH]1 (stereo not drawn) [Compound F5, 2-(3-phenyl-1H-1,2,4-triazol-5-yl)-3a,4,7,7a-tetrahydro-1H-isoindole-1,3(2H)-dione]",0.0625,0.8895
"COC(=O)c1cc(-c2ccc(C)cc2C)n[nH]1 [Compound B13, methyl 3-(2,4-dimethylphenyl)-1H-pyrazole-5-carboxylate]",66.1,−3.035
"Cc1ccc(-c2cc(C(=O)O)[nH]n2)cc1C [Compound B8, 3-(3,4-dimethylphenyl)-1H-pyrazole-5-carboxylic acid]",> 100,–
"O=C(O)c1cc(-c2ccc(O)cc2)n[nH]1 [Compound B1, 3-(4-hydroxyphenyl)-1H-pyrazole-5-carboxylic acid]",79.2,1.1
"COC(=O)c1cc(-c2ccc(Br)cc2)n[nH]1 [Compound A7, methyl 5-(4-bromophenyl)-1H-pyrazole-3-carboxylate]",> 100,–
